Assay results from paper PMC3940079 (International Journal for Parasitology: Drugs and Drug …, 2013).

Key:
[1] = target: T1, P2 aminopurine transporter (TbAT1) (Trypanosoma brucei, UniProt Q9Y0I0); assay: inhibition of […] [3H]-adenosine uptake; format: cell-based
T1 sequence (Q9Y0I0 1-463): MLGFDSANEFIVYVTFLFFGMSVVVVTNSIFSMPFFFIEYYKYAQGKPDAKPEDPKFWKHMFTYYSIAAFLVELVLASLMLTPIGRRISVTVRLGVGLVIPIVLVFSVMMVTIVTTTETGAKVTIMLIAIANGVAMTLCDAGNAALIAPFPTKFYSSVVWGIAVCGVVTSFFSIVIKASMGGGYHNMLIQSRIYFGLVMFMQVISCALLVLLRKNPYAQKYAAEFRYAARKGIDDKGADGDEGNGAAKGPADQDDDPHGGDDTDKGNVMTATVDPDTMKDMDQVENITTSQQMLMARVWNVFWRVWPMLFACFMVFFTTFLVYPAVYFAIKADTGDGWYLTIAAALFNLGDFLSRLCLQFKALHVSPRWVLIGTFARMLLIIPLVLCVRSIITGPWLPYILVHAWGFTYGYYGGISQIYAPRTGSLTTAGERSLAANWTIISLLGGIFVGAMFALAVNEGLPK

[2] = target: H3 nucleobase transporter; assay: inhibition of […] [3H]-hypoxanthine uptake in bloodstream-form trypanosomes; format: cell-based, Trypanosoma brucei brucei
[3] = target: H2 nucleobase transporter; assay: as above; format: cell-based, Trypanosoma brucei brucei

- Ki [1]: 75.3 ± 5.7 µM
- Ki [2]: 105 ± 24 µM
- Ki [3]: 230 ± 35 µM
Structure (SMILES): Nc1ncnc2n[nH]cc12 [aminopurinol]
